Test results as given in patent US20050070595A1, “Trioxane derivatives as antimalaria or anticancer compounds” (priority 2001, published 2005).
Where “and” joins values, the source holds several entries; their conditions need not be identical. Identical values can stand only once. Like-named read-outs stand apart in the source and are kept apart here.

Test system: chloroquine-resistant K1 strain of P. falciparum
Test: 48-h sensitivity assay, [3H]-hypoxanthine incorporation as an assessment of parasite growth
Format: cell-based
Experimental: The antimalarial activity of the new dimers was tested against the chloroquine-resistant K1 strain of P. falciparum. A single uncloned K1, chloroquine resistant strain of P. falciparum from Thailand was used. Parasites were maintained in continuous culture using the method of Trager and Jenson. (J. Parasitol, 1977, 63, […]). Cultures were grown in flasks containing human erythrocytes (2-5%) with parasitemia in the range of 1% to 10% suspended in RPMI 1640 medium supplemented with 25 mM HEPES and 32 mM NaHCO3, and 10% human serum (complete medium). Cultures were gassed with a mixture of 3% O2, 4% CO2 and 93% N2.
Antimalarial activity was assessed with an adaption of the 48-h sensitivity assay of Desjardins et al. (Antimicrob. Agents. Chemother., 1979, 16, 710-718) using [^3H]-hypoxanthine incorporation as an assessment of parasite growth. Stock drug solutions were prepared in 100% dimethylsulphoxide (DMSO) and diluted to the appropriate concentration using complete medium. Assays were performed in sterile 96-well microtitre plates, each plate containing 200 μl of parasite culture (2% parasitemia, 0.5% haematocrit) with or without 10 μl drug dilutions. Each drag was tested in triplicate and parasite growth was compared to control wells (which constituted 100% parasite growth). After 24-h incubation at 37° C., 0.5 μCi hypoxanthine was added to each well. Cultures were incubated for a further 24 h before they were harvested onto filter-mats, dried for 1 h at 55° C. and counted using a Wallac 1450 Microbeta Trilux Liquid scintillation and luminescence counter. IC50 values were calculated by interpolation of the probit transformation of the log dose—response curve.

[1] = mean of the determinations, K1 strain, 48 h, read-out: Mean IC50
[2] = Plasmodium falciparum, K1, 48 h, mean of the determinations, K1 strain, 48 h, read-out: Mean IC50
[3] = single determinations (triplicate), K1 strain, 48 h, read-out: IC50

| Molecule | IC50 [1] [nM] | IC50 [3] | further results |
| --- | --- | --- | --- |
| 10β-(2-Hydroxyethyl)-deoxoartemisinin bis-ester (1,2)-dimer [PV30] | 2.6 | – | – |
| CO[C@H]1O[C@@H]2O[C@@]3(C)CC[C@H]4[C@H](C)CC[C@@H]([C@H]1C)[C@@]24OO3 [Artemether, artemether, reference compound] | – | 2 nM | IC50 [2]: 2.8 nM |
| C[C@@H]1CC[C@H]2[C@@H](C)C(=O)O[C@@H]3O[C@@]4(C)CC[C@@H]1[C@]32OO4 [Artemisinin, reference compound] | – | – | IC50 [2]: 12.3 nM; IC50 (Plasmodium falciparum, K1, 48 h, single determinations (triplicate), K1 strain, 48 h, read-out: IC50): 12.3 nM |
| CCN(CC)CCCC(C)Nc1ccnc2cc(Cl)ccc12 (stereo not shown) [Chloroquine, chloroquine, reference compound] | – | – | IC50 (Plasmodium falciparum, K1, 48 h): 190 nM; IC50 (Plasmodium falciparum, K1, 48 h, read-out: Mean IC50): 190 nM |
| C[C@H]1[C@@H](CCOC(=O)c2cccc(C(=O)OCC[C@H]3O[C@@H]4O[C@]5(C)CC[C@H]6[C@H](C)CC[C@@H]([C@H]3C)[C@@]46OO5)c2)O[C@@H]2O[C@]3(C)CC[C@H]4[C@H](C)CC[C@@H]1[C@@]24OO3 [PV31, 10β-(2-hydroxyethyl)-deoxoartemisininbis-ester(1,3)-dimer] | 42.2 | 39.9 nM and 43.3 nM | – |
| C[C@H]1[C@@H](CCOC(=O)c2ccc(C(=O)OCC[C@H]3O[C@@H]4O[C@]5(C)CC[C@H]6[C@H](C)CC[C@@H]([C@H]3C)[C@@]46OO5)cc2)O[C@@H]2O[C@]3(C)CC[C@H]4[C@H](C)CC[C@@H]1[C@@]24OO3 [PV32, 10-β-(2-Hydroxyethyl)-deoxoartemisinin bis-ester(1,4)-dimer] | 4.6 | 5.5 nM and 5.2 nM and 3 nM | – |
| C[C@H]1[C@@H](CCOC(=O)CCC(=O)OCC[C@H]2O[C@@H]3O[C@]4(C)CC[C@H]5[C@H](C)CC[C@@H]([C@H]2C)[C@@]35OO4)O[C@@H]2O[C@]3(C)CC[C@H]4[C@H](C)CC[C@@H]1[C@@]24OO3 [PV33] | 1.8 | – | – |
| CC1CCC2C(C)C(CCOC(=O)CCCC(=O)OCCC3OC4OC5(C)CCC6C(C)CCC(C3C)C46OO5)OC3OC4(C)CCC1C32OO4 (stereo not shown) [PV35] | 2.4 | 2.6 nM and 3.1 nM and 1.6 nM | – |
| CC1CCC2C(C)C(CCOP(=O)(OCCC3OC4OC5(C)CCC6C(C)CCC(C3C)C46OO5)Oc3ccccc3)OC3OC4(C)CCC1C32OO4 (stereo not shown) [PV37] | 0.5 | – | – |
| C[C@H]1[C@@H](CCOCc2ccc(COCC[C@H]3O[C@@H]4O[C@]5(C)CC[C@H]6[C@H](C)CC[C@@H]([C@H]3C)[C@@]46OO5)cc2)O[C@@H]2O[C@]3(C)CC[C@H]4[C@H](C)CC[C@@H]1[C@@]24OO3 [PV41] | 2.4 | 2.6 nM and 3.1 nM and 1.6 nM | – |
| C[C@H]1[C@@H](CCOCc2cccc(COCC[C@H]3O[C@@H]4O[C@]5(C)CC[C@H]6[C@H](C)CC[C@@H]([C@H]3C)[C@@]46OO5)c2)O[C@@H]2O[C@]3(C)CC[C@H]4[C@H](C)CC[C@@H]1[C@@]24OO3 [PV43] | 2.9 | – | – |
| C[C@H]1[C@@H](CCOCc2ccccc2COCC[C@H]2O[C@@H]3O[C@]4(C)CC[C@H]5[C@H](C)CC[C@@H]([C@H]2C)[C@@]35OO4)O[C@@H]2O[C@]3(C)CC[C@H]4[C@H](C)CC[C@@H]1[C@@]24OO3 [PV45] | 2.7 | – | – |
